In ChEMBL document CHEMBL5331112, “Recent Advances in Pro-PROTAC Development to Address On-Target Off-Tumor Toxicity” (J Med Chem, 2023):

Key:
[1] = Cytotoxicity against human HFF-1 cells assessed as cell growth inhibition; format: toxicity, cell-based
[2] = test system: SU-DHL-1; assay: Anticancer activity against human SU-DHL-1 cells assessed as cell growth inhibition; format: functional, cell-based
[3] = test system: MCF7; assay: Anticancer activity against human MCF7 cells xenografted in mouse assessed as cell growth inhibition […] relative to control; format: functional
[4] = target: von Hippel-Lindau disease tumor suppressor/Bromodomain-containing protein 4 (Homo sapiens, UniProt O60885+P40337); assay: PROTAC activity at VHL/BRD4 in human MCF7 cells assessed as degradation of BRD4 incubated by Western blot assay; format: cell-based
[5] = test system: MCF7; assay: Anticancer activity against human MCF7 cells assessed as cell growth inhibition CCK8 assay; format: functional, cell-based

Sequence of von Hippel-Lindau disease tumor suppressor/Bromodomain-containing protein 4 (P40337 whole entry, looked up, other chains not shown): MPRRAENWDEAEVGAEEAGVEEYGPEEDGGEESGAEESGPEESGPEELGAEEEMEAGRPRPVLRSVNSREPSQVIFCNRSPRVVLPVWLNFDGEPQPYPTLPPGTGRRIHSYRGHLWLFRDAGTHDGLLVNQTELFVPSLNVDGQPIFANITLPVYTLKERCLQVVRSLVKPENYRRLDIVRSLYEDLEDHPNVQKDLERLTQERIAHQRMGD

For Cc1ncsc1-c1ccc([C@H](C)NC(=O)[C@@H]2C[C@@H](OC(=O)CCCCn3cc(CNC(=O)CC[C@H](NC(=O)c4ccc(NCc5cnc6nc(N)[nH]c(=O)c6n5)cc4)C(=O)O)nn3)CN2C(=O)[C@@H](NC(=O)COCCCOCCNC(=O)C[C@@H]2N=C(c3ccc(Cl)cc3)c3c(sc(C)c3C)-n3c(C)nnc32)C(C)(C)C)cc1, the IC50 [1] was over 10000 nM.
Cc1cc(Nc2ncc(Cl)c(Nc3ccccc3S(=O)(=O)C(C)C)n2)c(OC(C)C)cc1C1CCN(C(=O)CCCC(=O)N[C@H](C(=O)N2C[C@H](OC(=O)CCCCn3cc(CNC(=O)CC[C@H](NC(=O)c4ccc(NCc5cnc6nc(N)[nH]c(=O)c6n5)cc4)C(=O)O)nn3)C[C@H]2C(=O)N[C@@H](C)c2ccc(-c3scnc3C)cc2)C(C)(C)C)CC1 gave an IC50 [2] of 200 nM.
With CNC(=O)CCC(=O)OCCSSCCOC(=O)O[C@@H]1C[C@@H](C(=O)N[C@@H](C)c2ccc(-c3scnc3C)cc2)N(C(=O)[C@H](NC(=O)COCCOCCOCCNC(=O)C[C@@H]2N=C(c3ccc(Cl)cc3)c3c(sc(C)c3C)-n3c(C)nnc32)C(C)(C)C)C1 the TGI [3] was 77.5%, the DC50 [4] was 22 nM and the IC50 [5] was 56.9 nM.
